The experiment addresses HCV NS3 helicase (NS3h) (UniProt A3EZJ3). The experiment can be described thus: HCV NS3 helicase inhibitor potency, dose response, biochemical, fluorescence polarization, ChemBridge library (AID 743264). Particulars: NS3h binding Cy5-dT15 DNA.

Molecules are shown by their SMILES. Activity calls are given as the source filed them.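 How the source made its calls: active means mean IC50 for blocking HCV helicase binding to DNA at 50 µM or lower; inactive means mean IC50 above 50 µM.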

HCV NS3 helicase (NS3h), sequence (A3EZJ3 1-631): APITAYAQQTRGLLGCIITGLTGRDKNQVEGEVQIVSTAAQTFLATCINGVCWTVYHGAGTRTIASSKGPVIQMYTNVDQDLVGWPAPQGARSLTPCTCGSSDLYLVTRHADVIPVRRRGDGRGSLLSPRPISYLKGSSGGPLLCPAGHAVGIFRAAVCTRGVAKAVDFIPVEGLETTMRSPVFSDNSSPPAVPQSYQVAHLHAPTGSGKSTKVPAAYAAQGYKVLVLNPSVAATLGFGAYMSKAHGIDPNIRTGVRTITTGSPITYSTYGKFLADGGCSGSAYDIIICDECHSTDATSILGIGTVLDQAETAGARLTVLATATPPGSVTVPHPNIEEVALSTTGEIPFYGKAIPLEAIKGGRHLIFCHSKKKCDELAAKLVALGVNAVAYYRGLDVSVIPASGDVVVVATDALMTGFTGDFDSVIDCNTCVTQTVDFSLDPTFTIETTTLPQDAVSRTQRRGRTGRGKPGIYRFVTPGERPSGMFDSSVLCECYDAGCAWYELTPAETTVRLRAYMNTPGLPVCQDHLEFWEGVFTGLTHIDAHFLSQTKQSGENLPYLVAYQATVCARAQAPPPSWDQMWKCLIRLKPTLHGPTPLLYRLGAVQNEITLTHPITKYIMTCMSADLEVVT

Consider `Cc1ccc(N2C(=O)C=CC2=O)c(Br)c1`, for which the IC50 result is “inactive”.
Regarding `O=C1C=CC(=O)N1c1cccc([N+](=O)[O-])c1`, the IC50 entry is “inactive”.
